Here are results for 17 molecules from US8853230B2, “Inhibitors of JAK” (Portola Pharmaceuticals, Inc., priority 2009, dated 2014).

pIC50: −log10 of the molar value.

The target of assay [1] is T1, JAK1 (Homo sapiens, UniProt P23458).
T1 construct: 5 μl of catalytic domain recombinant Kinase enzyme+Tyr peptide substrate (Invitrogen, Calif.); purchased Invitrogen
The assay can be described thus: Z'-LYTE kinase assay, JAK1 tyrosine phosphorylation activity. As to conditions: read-out: JAK 1 IC50. Type of assay: biochemical. The method, boiled down:
(§1)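 Compounds are serially diluted 1:10 in DMSO and tested in duplicate at 1% final DMSO. Each recombinant catalytic domain phosphorylates the Tyr6 FRET peptide with ATP for 1 h at room temperature, then a site-specific protease cleaves unphosphorylated peptide over 1 h before coumarin/fluorescein emission is read.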

Assay [2] concerns the target T2, JAK2 (Homo sapiens, UniProt O60674).
T2 construct: 5 μl of catalytic domain recombinant Kinase enzyme+Tyr peptide substrate (Invitrogen, Calif.); purchased Invitrogen
The assay is described as follows: Z'-LYTE kinase assay, JAK2 tyrosine phosphorylation activity. Type of assay: biochemical. The method, boiled down:
as §1

Assay [3] has as its target T3, JAK3 (Homo sapiens, UniProt P52333).
T3 construct: 5 μl of catalytic domain recombinant Kinase enzyme+Tyr peptide substrate (Invitrogen, Calif.); purchased Invitrogen
The assay is described as follows: Z'-LYTE kinase assay, JAK3 tyrosine phosphorylation activity. The format is biochemical. Summed up: as §1

The target of assay [4] is T4, TYK2 (Homo sapiens, UniProt P29597).
T4 construct: 5 μl of catalytic domain recombinant Kinase enzyme+Tyr peptide substrate (Invitrogen, Calif.); purchased Invitrogen
T4 sequence (P29597 897-1176 limits assumed): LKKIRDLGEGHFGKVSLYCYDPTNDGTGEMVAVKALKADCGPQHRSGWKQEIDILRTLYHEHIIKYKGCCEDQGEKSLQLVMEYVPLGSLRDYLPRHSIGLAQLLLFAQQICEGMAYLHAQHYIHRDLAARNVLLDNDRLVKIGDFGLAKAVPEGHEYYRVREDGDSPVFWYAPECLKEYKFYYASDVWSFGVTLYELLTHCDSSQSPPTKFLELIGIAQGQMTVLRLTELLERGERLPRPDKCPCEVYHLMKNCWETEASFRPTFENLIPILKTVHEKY
The assay can be described thus: Z'-LYTE kinase assay, TYK2 tyrosine phosphorylation activity. The format is biochemical. Summed up:
as §1

Assay [5] deals with IL4-induced phospho STAT6 formation in Ramos B lymphocytes. The assay is described as follows: Inhibition of IL4-induced phospho STAT6 formation in Ramos B lymphocytes (flow cytometry). To be noted: Homo sapiens; for inhibition at 0.2 µM: 200 nM compound, read-out: % Inhibition of IL-4 Induced STAT6 Phosphorylation 200 nM; for inhibition at 1 µM: 1 μM compound, read-out: % Inhibition of IL-4 Induced STAT6 Phosphorylation 1 μM. Type of assay: cell-based, human. The text has this:
Similar types of assays can be used to assess JAK inhibitory activity and to determine the degree of selectivity of the particular compound as compared to syk. One means of assaying for such inhibition is detection of the effect of the compounds of the present invention on the upregulation of downstream gene products. In the Ramos/IL4 assay, B-cells are stimulated with the cytokine Interleukin-4 (IL-4) leading to the activation of the JAK/Stat pathway through phosphorylation of the JAK family kinases, JAK1 and JAK3, which in turn phosphorylate and activate the transcription factor Stat-6. […] To study the effect of inhibitors (e.g., the 2,4-substituted pyrimindinediamine compounds described herein) on the JAK1 and JAK3, human Ramos B-cells are stimulated with human IL-4. 10′ post-stimulation, cells are subjected to intracellular flow cytometry to measure the extent of STAT-6 phosphorylation. 20 to 24 hours post-stimulation, cells are stained for upregulation of CD23 and analyzed using flow cytometry.
Inhibition of IL4-induced phospho STAT6 formation was measured by pre-incubating 0.5 million Ramos B lymphocytes (ATCC) with 5 μl compound or DMSO vehicle for 1 hour at 37° C./5% CO2. Cells were activated by addition of 1 ng/ml [f]IL4 (R & D Research Systems) for 10 min at 37° C./5% CO2 and then fixed by addition of 1.6% [f]PFA (Electron Microscopy Services). Following a PBS wash step and permaeabilization with 100% methanol, cells were incubated with ALEXA-conjugated anti-phosphoSTAT6 (Y641) antibody (BD 612600). The extent of cell associated-fluorescence was determined by flow cytomentry and data expressed as mean fluorescent intensity. The extent of inhibition of the IL4-induced signal was then calculated.

T2 sequence (O60674 849-1124 limits assumed): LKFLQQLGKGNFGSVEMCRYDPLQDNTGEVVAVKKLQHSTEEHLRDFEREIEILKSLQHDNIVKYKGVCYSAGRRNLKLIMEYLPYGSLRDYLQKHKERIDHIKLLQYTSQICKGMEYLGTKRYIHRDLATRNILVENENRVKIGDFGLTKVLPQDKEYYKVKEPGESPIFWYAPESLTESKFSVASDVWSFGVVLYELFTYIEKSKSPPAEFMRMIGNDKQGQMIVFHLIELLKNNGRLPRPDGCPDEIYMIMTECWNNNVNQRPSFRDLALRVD
T1 sequence (P23458 875-1153 limits assumed): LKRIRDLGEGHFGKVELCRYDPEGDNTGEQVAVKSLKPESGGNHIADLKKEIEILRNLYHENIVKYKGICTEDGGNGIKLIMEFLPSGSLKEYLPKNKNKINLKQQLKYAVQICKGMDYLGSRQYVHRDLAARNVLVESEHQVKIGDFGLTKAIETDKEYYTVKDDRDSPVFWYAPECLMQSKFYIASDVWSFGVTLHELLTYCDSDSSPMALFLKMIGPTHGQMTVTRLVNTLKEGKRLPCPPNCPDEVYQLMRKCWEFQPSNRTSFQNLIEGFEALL
T3 sequence (P52333 822-1111 limits assumed): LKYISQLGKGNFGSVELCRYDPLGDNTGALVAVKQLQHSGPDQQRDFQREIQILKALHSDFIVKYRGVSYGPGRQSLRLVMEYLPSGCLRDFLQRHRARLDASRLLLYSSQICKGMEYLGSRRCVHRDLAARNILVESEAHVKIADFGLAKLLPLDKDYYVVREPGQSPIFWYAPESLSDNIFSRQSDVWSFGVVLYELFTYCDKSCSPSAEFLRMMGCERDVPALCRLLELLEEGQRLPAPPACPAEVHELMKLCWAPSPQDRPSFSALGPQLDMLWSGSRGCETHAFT

One may read the pIC50 as the negative decadic logarithm of the IC50, by convention in mol/L. The term inhibition denotes the relative decrease from the control value, in per cent. As for `NC(=O)c1cnc(Nc2ccc(Cl)c(NC(=O)NC3CC3)c2)nc1NCc1ccccc1` [Example 154, 4-(benzylamino)-2-(4-chloro-3-(3-cyclopropylureido)phenylamino)pyrimidine-5-carboxamide], the pIC50 in assay [1] is less than 6.00; in assay [2], less than 6.00; in assay [3] it was 7.00 to 8.00; in assay [4], 6.00 to 7.00. In addition, the inhibition at 0.2 µM in assay [5] was determined as 11.7%. Further, in assay [5], the inhibition at 1 µM came out at 33.7%.

Take `CC(=O)Nc1cccc(Nc2cc(NCc3ccccc3)c(C(N)=O)cn2)c1` [Example 213, 6-(3-acetamidophenylamino)-4-(benzylamino)nicotinamide]: the negative logarithm of the IC50 (pIC50) in assay [1] is 6.00 to 7.00; in assay [2], 6.00 to 7.00; in assay [3], 7.00 to 8.00; in assay [4] it was 6.00 to 7.00. Moreover, the inhibition at 0.2 µM in assay [5] was 11.3%. Further, the inhibition at 1 µM in assay [5] was 35.3%.

Turning to `CNC(=O)Nc1cc(Nc2ncc(C(N)=O)c(NCc3ccccc3F)n2)ccc1Cl` [Example 169, 2-(4-chloro-3-(3-methylureido)phenylamino)-4-(2-fluorobenzylamino)pyrimidine-5-carboxamide], the pIC50 in assay [1] was 6.00 to 7.00; in assay [2], 6.00 to 7.00; in assay [3] it was 8.00 to 9.00; in assay [4] it was 7.00 to 8.00. Moreover, the inhibition at 0.2 µM in assay [5] was determined as 3.3%. Besides, the inhibition at 1 µM in assay [5] was found to be 16.7%.

Turning to `C[C@@H](Nc1nc(Nc2cccc(NC(=O)N3CCC[C@@H]3C)c2)ncc1C(N)=O)c1ccccc1` [Example 137, 2-(3-((S)-2-methylpyrrolidine-1-carboxamido)phenylamino)-4-((R)-1-phenylethylamino)pyrimidine-5-carboxamide], the pIC50 in assay [1] was 6.00 to 7.00; in assay [2], 7.00 to 8.00; in assay [3], 8.00 to 9.00; in assay [4], 7.00 to 8.00. Moreover, the inhibition at 0.2 µM in assay [5] came to 14.7%. The inhibition at 1 µM in assay [5] amounted to 57.3%.

Take `CCCCNc1nc(Nc2cccc(NC(=O)N3CCCC3)c2)ncc1C(N)=O` [Example 135, 4-(butylamino)-2-(3-(pyrrolidine-1-carboxamido)phenylamino)pyrimidine-5-carboxamide]: the negative-log IC50 (pIC50) in assay [1] is 7.00 to 8.00; in assay [2] it was 7.00 to 8.00; in assay [3], 8.00 to 9.00; in assay [4], 8.00 to 9.00. The inhibition at 0.2 µM in assay [5] was 42.3%. In addition, the inhibition at 1 µM in assay [5] was determined as 89.7%.

`CN1CCN(C(=O)Nc2cccc(Nc3ncc(C(N)=O)c(NCc4ccccc4)n3)c2)CC1` [Example 216, 4-(benzylamino)-2-(3-(4-methylpiperazine-1-carboxamido)phenylamino)pyrimidine-5-carboxamide]: the pIC50 in assay [1] was 7.00 to 8.00; in assay [2], 7.00 to 8.00; in assay [3], greater than 9.00; in assay [4], 8.00 to 9.00. Further, the inhibition at 0.2 µM in assay [5] came to 57.3%. For the same molecule, the inhibition at 1 µM in assay [5] is 91%.

As for `NC(=O)c1cnc(Nc2cccc(NC(=O)[C@@H]3CCCO3)c2)nc1NCc1cccc(F)c1` [Example 208, (S)-4-(3-fluorobenzylamino)-2-(3-(tetrahydrofuran-2-carboxamido)phenylamino)pyrimidine-5-carboxamide], the negative-log IC50 (pIC50) in assay [1] was 7.00 to 8.00; in assay [2] it was 7.00 to 8.00; in assay [3], 8.00 to 9.00; in assay [4], 7.00 to 8.00. Further, the inhibition at 0.2 µM in assay [5] stood at 22.7%. Further, the inhibition at 1 µM in assay [5] was determined as 67.7%.

For the molecule `NC(=O)c1cnc(Nc2ccc(Cl)c(NC(=O)N3CCOCC3)c2)nc1NCc1ccccc1` [Example 182, N-(5-(4-(benzylamino)-5-carbamoylpyrimidin-2-ylamino)-2-chlorophenyl)morpholine-4-carboxamide], the pIC50 in assay [1] is 7.00 to 8.00; in assay [2], 7.00 to 8.00; in assay [3], 8.00 to 9.00; in assay [4] it was 8.00 to 9.00. Moreover, the inhibition at 0.2 µM in assay [5] was determined as 42.3%. Besides, the inhibition at 1 µM in assay [5] was determined as 89%.

With `CC(=O)Nc1cccc(Nc2ncc(C(N)=O)c(NCc3ccccc3F)n2)c1` [Example 100, 2-(3-acetamidophenylamino)-4-(2-fluorobenzylamino)pyrimidine-5-carboxamide], the pIC50 is 7.00 to 8.00 in assay [1], 7.00 to 8.00 in assay [2], 8.00 to 9.00 in assay [3] and 8.00 to 9.00 in assay [4]. Moreover, the inhibition at 0.2 µM in assay [5] came out at 43.5%. Moreover, the inhibition at 1 µM in assay [5] was determined as 95.3%.

As for `C[C@@H](Nc1nc(Nc2ccc(Cl)c(NC(=O)C3CC3)c2)ncc1C(N)=O)c1ccccc1` [Example 110, (R)-2-(4-chloro-3-(cyclopropanecarboxamido)phenylamino)-4-(1-phenylethylamino)pyrimidine-5-carboxamide], the pIC50 in assay [1] is 6.00 to 7.00; in assay [2], 6.00 to 7.00; in assay [3], 7.00 to 8.00; in assay [4], 6.00 to 7.00. The inhibition at 0.2 µM in assay [5] amounted to 48.3%. In assay [5], the inhibition at 1 µM turned out to be 97.7%.

As to `NC(=O)c1cnc(Nc2ccc(F)c(NC(=O)N3CCC3)c2)nc1NCc1ccccc1` [Example 234, 2-(3-(azetidine-1-carboxamido)-4-fluorophenylamino)-4-(benzylamino)pyrimidine-5-carboxamide], the negative logarithm of the IC50 (pIC50) in assay [1] is 7.00 to 8.00; in assay [2] it was 7.00 to 8.00; in assay [3], 8.00 to 9.00; in assay [4] it was 7.00 to 8.00. The inhibition at 0.2 µM in assay [5] turned out to be 34.3%. Moreover, the inhibition at 1 µM in assay [5] worked out at 77%.

`CN(C)[C@@H]1CCN(C(=O)Nc2cccc(Nc3ncc(C(N)=O)c(NCc4ccccc4)n3)c2)C1` [Example 210, (R)-4-(benzylamino)-2-(3-(3-(dimethylamino)pyrrolidine-1-carboxamido)phenylamino)pyrimidine-5-carboxamide]: the pIC50 in assay [1] was 7.00 to 8.00; in assay [2], 7.00 to 8.00; in assay [3], 8.00 to 9.00; in assay [4] it was 8.00 to 9.00. For the same molecule, the inhibition at 0.2 µM in assay [5] amounted to 48%. In assay [5], the inhibition at 1 µM is 81.7%.

Take `CNC(=O)Nc1cc(Nc2ncc(C(N)=O)c(NCc3cccc(Cl)c3)n2)ccc1Cl` [Example 165, 2-(4-chloro-3-(3-methylureido)phenylamino)-4-(3-chlorobenzylamino)pyrimidine-5-carboxamide]: the pIC50 in assay [1] was less than 6.00; in assay [2], 6.00 to 7.00; in assay [3], 7.00 to 8.00; in assay [4], less than 6.00. Further, the inhibition at 0.2 µM in assay [5] came to 57.3%. Moreover, the inhibition at 1 µM in assay [5] came to 89.7%.

`C[C@@H](Nc1nc(Nc2ccc(Cl)c(NC(=O)N3CCCC3)c2)ncc1C(N)=O)c1ccccc1` [Example 221, (R)-2-(4-chloro-3-(pyrrolidine-1-carboxamido)phenylamino)-4-(1-phenylethylamino)pyrimidine-5-carboxamide]: the pIC50 in assay [1] was less than 6.00; in assay [2] it was 6.00 to 7.00; in assay [3], 7.00 to 8.00; in assay [4], 6.00 to 7.00. Moreover, in assay [5], the inhibition at 0.2 µM worked out at 2.3%. The inhibition at 1 µM in assay [5] was 6.3%.

Take `CCC(C)CNc1nc(Nc2cccc(NC(C)=O)c2)ncc1C(N)=O` (stereo not drawn) [Example 249, 2-(3-acetamidophenylamino)-4-(2-methylbutylamino)pyrimidine-5-carboxamide]: the pIC50 in assay [1] is 7.00 to 8.00; in assay [2], 8.00 to 9.00; in assay [3] it was greater than 9.00; in assay [4], 8.00 to 9.00.

Regarding `CN(C)C(=O)Nc1ccc(F)c(Nc2ncc(C(N)=O)c(NCc3ccccc3)n2)c1` [Example 201, 4-(benzylamino)-2-(5-(3,3-dimethylureido)-2-fluorophenylamino)pyrimidine-5-carboxamide], the pIC50 was less than 6.00 in assay [1], less than 6.00 in assay [2], 7.00 to 8.00 in assay [3] and 6.00 to 7.00 in assay [4].

For `CC(=O)Nc1cccc(Nc2ncc(C(N)=O)c(N[C@@H](c3ccccc3)C3CC3)n2)c1` [Example 152, (R)-2-(3-acetamidophenylamino)-4-(cyclopropyl(phenyl)methylamino)pyrimidine-5-carboxamide], the pIC50 in assay [1] is 6.00 to 7.00; in assay [2] it was 6.00 to 7.00; in assay [3], 7.00 to 8.00; in assay [4], 6.00 to 7.00.
